Results: US5358937A, “Glycosyl phospholipid derivatives of nucleosides and their use as medicines” (priority 1989, dated 1994)
Values joined by “and” are separate entries in the source; they are usually repeats but may differ in a detail not shown here. Identical values can stand only once. Like-named read-outs stand apart in the source and are kept apart here.

Assays:
[1] = HPLC assay of AZT in the brain of mice after oral administration; assay type: in vivo, Swiss mouse; conditions: for Phosphodiester detected by HPLC per gram of brain, mean (offset figure) / Phosphodiester detected by HPLC per gram of brain, individual value / Phosphotriester detected by HPLC per gram of brain, individual value: 25 mg/kg oral, 1 hour, CT 7625 0.64; for Phosphodiester detected by HPLC per gram of brain, mean (offset figure): AZT equivalent micromol per mouse: CT 6715 0.94, CT 6651 0.68; for Phosphodiester detected by HPLC per gram of brain, mean (offset figure) / Phosphodiester detected by HPLC per gram of brain, individual value: CT 7624 0.90; for Phosphodiester detected by HPLC per gram of brain, individual value: AZT equivalent micromol per mouse: CT 6715, CT 7626 0.94, CT 6651, CT 7627 0.68, 60 min; for Phosphodiester detected by HPLC per gram of brain, individual value / concentration at 1 h: 25 mg/kg; for Phosphotriester detected by HPLC per gram of brain, individual value: AZT equivalent micromol per mouse: CT 6651, CT 7627 0.68; for concentration at 1 h: mouse, brain, po, read-out: Phosphodiester detected by HPLC per gram of brain, individual value
Method: The assays are conducted on the Swiss mouse.
The compounds are dissolved in distilled water (or suspended in distilled water) before being administered by gavage; the assays are performed by administering each compound to 3 mice. The control consists of 3 mice receiving the equivalent of the vehicle, i.e. the same volume of distilled water as the treated mice. The brains are removed 1 hour after garage, homogenized in an acetonitrile-water (3/1) mixture, centrifuged and the supernatant is taken for the HPLC assay.
In a preliminary trial, favourable experimental conditions for the assays of the different compounds by HPLC are determined.
In the table which follows, each line corresponds to an assay series.

[2] = system: HIV virus (isolate LAV1-BRU); assay: inhibition of the cytopathogenic effect (CPE) of the HIV virus toward a continuous line of T4 lymphocytes by colorimetric assay with MTT; assay type: cell-based
[3] = system: HIV virus; viral reverse transcriptase; assay: inhibition of viral replication by microassay of the enzymatic activity of the viral reverse transcriptase in CEM culture supernatants; assay type: cell-based; parameters: unit not given here
in vitro = conditions: human, cem-c113 cells
[4] = 31P-NMR study of the interactions between the phosphotriesters and model membranes (transmembrane transport)
[5] = system: HIV virus (isolate LAV1-BRU); assay: selectivity index / protection index (CD50/ED50 ratio); assay type: cell-based
From the text: Determination of the selectivity index
The higher the difference between the CD50 and the ED50, the more useful will be the product. This difference is quantified by the selectivity index (the CD50/ED50 ratio).

[6] = Human immunodeficiency virus 1, CEM-c113, read-out: ED50 (protective dose 50%), D7 of culture, CEM-C113 cells
[7] = Human immunodeficiency virus 1, CEM-c113, read-out: ED50 (protective dose 50%), D11 of culture, CEM-C113 cells
[8] = Human immunodeficiency virus 1, CEM-c113, read-out: ED50 (protective dose 50%), D19 of culture, CEM-C113 cells
[9] = Human immunodeficiency virus 1, CEM-c113, read-out: ED50 (protective dose 50%), D22 of culture, CEM-C113 cells

Compound	EC50 [2, 6] [nM]	EC50 [2, 7] [nM]	EC50 [2, 8] [nM]	EC50 [2, 9] [nM]	reverse transcriptase activity in culture supernatant ([3]; 0.2 uM, D7)	reverse transcriptase activity in culture supernatant ([3]; 0.2 uM, D11)	reverse transcriptase activity in culture supernatant ([3]; 0.2 uM, D18)	reverse transcriptase activity in culture supernatant ([3]; 0.2 uM, D19)	reverse transcriptase activity in culture supernatant ([3]; 0.2 uM, D22)	reverse transcriptase activity in culture supernatant ([3]; 0.2 uM, D26)	reverse transcriptase activity in culture supernatant ([3]; 1 uM, D7)	reverse transcriptase activity in culture supernatant ([3]; 1 uM, D11)	reverse transcriptase activity in culture supernatant ([3]; 1 uM, D18)	reverse transcriptase activity in culture supernatant ([3]; 1 uM, D19)	reverse transcriptase activity in culture supernatant ([3]; 1 uM, D22)	reverse transcriptase activity in culture supernatant ([3]; 1 uM, D26)	CC50 at 168 h (in vitro) [nM]	CC50 at 264 h (in vitro) [nM]	CC50 at 456 h (in vitro) [nM]	CC50 at 528 h (in vitro) [nM]	other results
Cc1cn([C@H]2C[C@H](N=[N+]=[N-])[C@@H](COP(=O)(O)OCCO[C@H]3O[C@H](CO)[C@@H](O)[C@H](O)[C@@H]3O)O2)c(=O)[nH]c1=O [CT 7624, 1ethoxy D-mannosyl 5'-(3'-azido) thymidinyl phosphate]	< 200	< 200	< 200	800	4400	2800	2600	24000	27000	70000	2800	1900	2200	12000	26000	55000	25000	> 25000	> 25000	> 25000	Phosphodiester detected by HPLC per gram of brain, mean (offset figure) [1]: 2.31 µg; Phosphodiester detected by HPLC per gram of brain, individual value [1]: 0.92 µg and 3.70 µg; reverse transcriptase activity in culture supernatant ([3]; 5 uM, D7): 1670; reverse transcriptase activity in culture supernatant ([3]; 5 uM, D11): 1003; reverse transcriptase activity in culture supernatant ([3]; 5 uM, D18): 852; reverse transcriptase activity in culture supernatant ([3]; 5 uM, D19): 2700; reverse transcriptase activity in culture supernatant ([3]; 5 uM, D22): 5500; reverse transcriptase activity in culture supernatant ([3]; 5 uM, D26): 42000; reverse transcriptase activity in culture supernatant ([3]; 25 uM, D7): 1204; reverse transcriptase activity in culture supernatant ([3]; 25 uM, D11): 372; reverse transcriptase activity in culture supernatant ([3]; 25 uM, D18): 304; reverse transcriptase activity in culture supernatant ([3]; 25 uM, D19): 2100; reverse transcriptase activity in culture supernatant ([3]; 25 uM, D22): 500; reverse transcriptase activity in culture supernatant ([3]; 25 uM, D26): 1700
CCCCCCCCCCCCCCCCOP(=O)(OCCO[C@H]1O[C@H](CO)[C@@H](O)[C@H](O)[C@@H]1O)OC[C@H]1O[C@@H](n2cc(C)c(=O)[nH]c2=O)C[C@@H]1N=[N+]=[N-] (stereo partly drawn) [CT 7625, 1-ethoxy D-mannosyl hexadecyl 5'-(3'-azido) thymidinyl phosphate]	< 200	1000	> 1000	> 1000	3900	2900	2400	25000	52000	61000	6000	6000	5500	47000	48000	64000	20000	28000	3400	24000	Phosphotriester detected by HPLC per gram of brain, individual value [1]: 0 µg; Phosphodiester detected by HPLC per gram of brain, mean (offset figure) [1]: 2.34 µg; Phosphodiester detected by HPLC per gram of brain, individual value [1]: 1.17 µg and 3.51 µg; interaction with / location in unilamellar vesicles (in words) [4]: found in the intravesicular aqueous phase
Cc1cn([C@H]2C[C@H](N=[N+]=[N-])[C@@H](COP(=O)(O)OC[C@H]3OC(O)[C@@H](O)[C@@H](O)[C@@H]3O)O2)c(=O)[nH]c1=O (stereo partly drawn) [CT 7626, 6-D-mannosyl-5'(3'-azido) thymidinyl phosphate]	< 200	200	200	600	3400	3000	1700	12000	27000	85000	2700	1300	1200	5000	15000	50000	> 25000	> 25000	24000	24000	concentration at 1 h [1]: 2050 ng/g; reverse transcriptase activity in culture supernatant ([3]; 5 uM, D7): 1500; reverse transcriptase activity in culture supernatant ([3]; 5 uM, D11): 1000; reverse transcriptase activity in culture supernatant ([3]; 5 uM, D18): 1300; reverse transcriptase activity in culture supernatant ([3]; 5 uM, D19): 8000; reverse transcriptase activity in culture supernatant ([3]; 5 uM, D22): 12000; reverse transcriptase activity in culture supernatant ([3]; 5 uM, D26): 100000; reverse transcriptase activity in culture supernatant ([3]; 25 uM, D7): 1100; reverse transcriptase activity in culture supernatant ([3]; 25 uM, D11): 700; reverse transcriptase activity in culture supernatant ([3]; 25 uM, D18): 900; reverse transcriptase activity in culture supernatant ([3]; 25 uM, D19): 2200; reverse transcriptase activity in culture supernatant ([3]; 25 uM, D22): 900; reverse transcriptase activity in culture supernatant ([3]; 25 uM, D26): 900
CCCCCCCCCCCCCCCCOP(=O)(OC[C@H]1OC(O)[C@@H](O)[C@@H](O)[C@@H]1O)OC[C@H]1O[C@@H](n2cc(C)c(=O)[nH]c2=O)C[C@@H]1N=[N+]=[N-] (stereo partly drawn) [CT 7627, 6-D-mannosyl hexadecyl 5'-(3'-azido)-thymidinyl phosphate]	< 200	300	500	400	4000	4700	1700	11000	24000	73000	2000	1100	500	1400	3900	20000	2600	2600	2500	25000	Phosphotriester detected by HPLC per gram of brain, individual value [1]: 0 µg; concentration at 1 h [1]: 2050 ng/g; PROTECTION INDICES (P.I.), CD50/ED50 [5]: > 13; interaction with / location in unilamellar vesicles (in words) [4]: interacts only with the external lipid layer of the unilamellar vesicles
Nc1ccn([C@H]2CC[C@@H](CO)O2)c(=O)n1 [ddC, dideoxycytidine, reference compound]	< 200																7000	400	< 200	< 200	PROTECTION INDICES (P.I.), CD50/ED50 ([5]; D7): > 35
Cc1cn([C@H]2CC[C@@H](CO)O2)c(=O)[nH]c1=O [ddT, 2', 3'-dideoxy thymidine, reference compound]	< 200	700	800	> 25000							3000	1500	750	1200	350	600	> 25000	< 25000	> 25000	> 25000	reverse transcriptase activity in culture supernatant ([3]; 5 uM, D7): 5000; reverse transcriptase activity in culture supernatant ([3]; 5 uM, D11): 2000; reverse transcriptase activity in culture supernatant ([3]; 5 uM, D18): 1400; reverse transcriptase activity in culture supernatant ([3]; 5 uM, D19): 5000; reverse transcriptase activity in culture supernatant ([3]; 5 uM, D22): 2100; reverse transcriptase activity in culture supernatant ([3]; 5 uM, D26): 5000; reverse transcriptase activity in culture supernatant ([3]; 25 uM, D7): 2500; reverse transcriptase activity in culture supernatant ([3]; 25 uM, D11): 1000; reverse transcriptase activity in culture supernatant ([3]; 25 uM, D18): 800; reverse transcriptase activity in culture supernatant ([3]; 25 uM, D19): 7000; reverse transcriptase activity in culture supernatant ([3]; 25 uM, D22): 4000; reverse transcriptase activity in culture supernatant ([3]; 25 uM, D26): 5000
